Assay results taken from US8143373B2, “Carbohydrate-containing pan cancer marker” (Vancouver Biotech Ltd., priority 2007, dated 2012).
Several values for one entry are separate records, joined by “and”; a condition that tells them apart may be missing. Equal values may be shown once. Each block holds one compound with its values, some of them ahead of it.

Columns and labels:
[1] = system: OC-3-VGH ovarian cancer cells tumors; experiment: Tumor growth in nude mice implanted subcutaneously with cancer cells; assay type: in vivo; conditions: for Percent (average tumor weight, negative control = 100) / Average of Tumor Weight: n=4; for Body Weight (individual mouse) / Tumor Weight (individual mouse): mice #1-4
Description: Groups of four nude mice were implanted subcutaneously with 2×10^6 cells in 0.2 ml per mouse at sites near the breast for a growth period of 2-3 weeks. Treatments were performed after visible apparent growth of tumors. The radioactive labeling of the mAb was at a specific radioactivity of 12.5 μCi/mg.
The mice were sacrificed on day 16 after treating with antibody, and the size of tumors in each mouse was determined by weight together with the body weight.

[2] = system: CA215 antigen on OC-3-VGH cancer cells; experiment: Direct binding enzyme immunoassay of RP215-HRP to OC-3-VGH cancer cell-coated wells (NaIO4 treatment, goat anti-human IgG competition); conditions: for Optical Density at 450 nm / percent maximum binding: RP215-HRP 10 ug/ml + normal mouse IgG 10 ug/ml
Description: PBS-washed OC-3-VGH cancer cells (conc. 1×10^6 cells/ml) were incubated with 100 mM NaIO4 for 30 minutes, the cells were washed with PBS containing 0.5% BSA, and then dried on microwells at 1×10^4 cells/well. The cell-coated microwells were then blocked with 0.5% BSA in PBS and direct binding enzyme immunoassays using RP215 labeled with horseradish peroxidase (RP215-HRP) were performed at 37° C. for one hour followed by extensive washes and color development with TMB substrate. For comparison wells coated with cancer cells without NaIO4 treatments served as control.

[3] = system: CA215 present in OC-3-VGH cancer cells; experiment: Secondary two-step ELISA, direct binding of anti-immunoglobulin antibodies to CA215 in OC-3-VGH cancer cells; design: species or system human; conditions: 1.125 ug/ml primary antibody; ODn = corresponding normal mouse IgG concentration
Description: In this case the experiment was conducted as a secondary two-step ELISA with primary antibodies incubated with sample overnight at room temperature, followed by goat antibody Anti-Mouse IgG-ALP, for 1 hour at 37° C. ODs is the OD value of sample and ODn is the OD value of corresponding normal mouse IgG concentration.

[4] = system: OC-3-VGH ovarian cancer cells; experiment: Growth of OC-3-VGH cell cultures in vitro; assay type: cell-based, human; conditions: addition to cell cultures of OC-3-VGH ovarian cancer cells
Description: Cell culture growth was also not inhibited either by human IgG or goat anti-human IgG in vitro up to a concentration of 200 μg/ml in the cell culture.

CA215 = experiment: Sandwich EIA with coated RP215 forms, OC-3-VGH shed medium and HRP-labeled RP215; assay type: binding, human; conditions: for Relative Signal Intensity in Sandwich EIA: antibody coated at 5 μg/ml, 450 nm
Description: Each was coated separately at 5 μg/ml overnight in microwells. The microwells were treated with concentrated cell culture shed medium of OC-3-VGH cells (to supply CA215) and then with HRP-labeled RP215 as a detection antibody. The detection antibody was incubated with each well for 60 min. at 37° C. After 30 min, TMB substrate was added for 20 min. of color development and, after stopping the reaction, the intensity determined at 450 nm in an ELISA reader. In some cases, 10 μg/ml human IgG was added to the wells, but this had no evident effect on the signal intensity.

Goat Anti-mouse IgG = experiment: Binding of well-coated antibodies to detecting antibody; conditions: for Relative Intensity: detecting antibody Goat Anti-mouse IgG, RP215 adjusted to 100%
Text: In row 1, the results were normalized to 100% for the interaction between RP215 and goat anti-mouse IgG. As shown in the first row, goat anti-mouse IgG bound comparatively poorly to the humanized or chimeric human forms.

Goat Anti-human IgG = experiment: as above; conditions: for Relative Intensity: detecting antibody Goat Anti-human IgG, hRP215 adjusted to 100%
Text: In row 2, when goat anti-human IgG is used as a detector, and humanized RP215 was set at 100%, decreased binding was shown for human IgG, and very reduced binding for the chimeric or murine RP215.

Goat Anti-human IgFc = experiment: as above
Goat Anti-human IgFab = experiment: as above
[5] = 60 mg/Kg, sacrificed day 16 after treating
[6] = high dose 10 mg/Kg (I131-labeled: + 125 μCi), day 16, 10 mg/kg, in g (unit assumed)
[7] = low dose 2 mg/Kg (I131-labeled: + 25 μCi), day 16, 2 mg/kg, in g (unit assumed)

Compound: O=P1(N(CCCl)CCCl)NCCCO1 (centres unmarked) [Cyclophosphonamide, reference compound]
Percent (average tumor weight, negative control = 100) ([1]; 60 mg/Kg, day 16): 73.2%
Average of Tumor Weight ([1]; 60 mg/Kg, day 16, in g (unit assumed)): 0.09575
Body Weight (individual mouse) [1, 5]: 21.18 (2×) and 21.42 and 23.37
Tumor Weight (individual mouse) [1, 5]: 0.098 (2×) and 0.096 and 0.091

Compound: RP215-HRP: RP215 labeled with horseradish peroxidase
binding between RP215-HRP and cancer cell-coated wells treated with periodate (in words) ([2]; 100 mM NaIO4 for 30 minutes vs untreated cells): drastically reduced
Optical Density at 450 nm ([2]; with NaIO4 treatment): 0.797
percent maximum binding ([2]; with NaIO4 treatment): 37%
Optical Density at 450 nm ([2]; without NaIO4 treatment): 2.153
percent maximum binding ([2]; without NaIO4 treatment): 100%

binding to goat anti-mouse IgG (in words) (Goat Anti-mouse IgG; antibody-coated microwells): strong binding
Relative Intensity (Goat Anti-mouse IgG): 100%
binding to goat anti-human IgG (in words) (Goat Anti-human IgG; antibody-coated microwells, alkaline phosphatase-labeled goat anti-human IgG): no binding
Relative Intensity (Goat Anti-human IgG): <0.5%
Relative Intensity (Goat Anti-human IgFc): <0.5%
Relative Intensity (Goat Anti-human IgFab): <1%
Compound: RP215: monoclonal antibody (mouse IgG) to tumor-associated antigen CA215; hybridoma deposited as ATCC HB10095
ODs405/ODn405 [3]: 11.6
effect on growth of cell cultures (in words) [4]: no effect on growth
Body Weight (individual mouse) [1, 6]: 21.43 and 23.05 and 22.15 and 23.56
Tumor Weight (individual mouse) [1, 6]: 0.088 and 0.077 and 0.095 and 0.086
Percent (average tumor weight, negative control = 100) ([1]; high dose 10 mg/Kg (I131-labeled: + 125 μCi), day 16): 66.2%
Average of Tumor Weight ([1]; high dose 10 mg/Kg (I131-labeled: + 125 μCi), day 16, in g (unit assumed)): 0.0865
Body Weight (individual mouse) [1, 7]: 21.76 and 20.57 and 21.98 and 22.64
Tumor Weight (individual mouse) [1, 7]: 0.103 and 0.122 and 0.080 and 0.104
Percent (average tumor weight, negative control = 100) ([1]; low dose 2 mg/Kg (I131-labeled: + 25 μCi), day 16): 78.2%
Average of Tumor Weight ([1]; low dose 2 mg/Kg (I131-labeled: + 25 μCi), day 16, in g (unit assumed)): 0.1022
tumor growth in vivo (in words) ([1]; nude mice): successful in inhibiting tumor growth in vivo
Relative Signal Intensity in Sandwich EIA (CA215; 10 μg/ml Human IgG): 100%
Relative Signal Intensity in Sandwich EIA (CA215; No Human IgG): 100%

binding affinity to CA215 compared with RP215 (in words) (CA215; sandwich EIA): lower binding affinity
Relative Intensity (Goat Anti-mouse IgG): ~7%
Relative Intensity (Goat Anti-human IgG): ~10%
Relative Intensity (Goat Anti-human IgFc): 45%
Relative Intensity (Goat Anti-human IgFab): 10%
Compound: chRP215: chimeric RP215 mAb with human constant regions and the murine variable regions of RP215
Relative Signal Intensity in Sandwich EIA (CA215; 10 μg/ml Human IgG): 15.4%
Relative Signal Intensity in Sandwich EIA (CA215; No Human IgG): 14.5%
